# Literature values as cited in US20180085319A1, “METHODS AND COMPOSITIONS FOR TREATING CANCER” (priority 2016, published 2018).
# System: anti-immunotoxin immune response
Substance,prevention of anti-immunotoxin immune response in patients (B cell depletion),effect on immune response to SS1P in mesothelioma patients (immunosuppressive treatment given with SS1P)
Rituximab,ineffective in preventing anti-immunotoxin immune response,
cyclophosphamide and pentostatin [cyclophosphamide and pentostatin (CP/PS)],,only delayed the response to the immunotoxin
